Assay results published in patent US20170348253A1, “Treatment of Drug-Resistant Microbial Infections” (NovaBiotics Limited, priority 2016, published 2017).

Assays:
[1] = system: P. aeruginosa strain LES431; test: Neutropenic mouse thigh model of infection; format: in vivo, Pseudomonas aeruginosa; conditions: for Log10 reduction in cfu/g: neutropoenic mice, thigh, 24 h post-treatment, compared with vehicle control
Protocol: Mouse thigh infection model experiments were conducted at Eurofins Panlabs, (Taipei, Taiwan). Mice were rendered neutropoenic with cyclophosphamide prior to infection. They were separated into groups of 5 animals per treatment. […] Animals were sacrificed 25 h post infection (24 h post-treatment) and thigh weights and cfu/g of tissue were calculated and recorded.

Staphylococcus aureus = test: Aberdeen clinical study: sputum microbiology, resistance profile of predominant pathogen; format: in vivo; set-up: key: MRSA = Methicillin-resistant Staphylococcus aureus; MSSA = Methicillin-sensitive Staphylococcus aureus; PR = pan-resistant; S = sensitive; Cip^R = ciprofloxacin-resistant; Cip^S = ciprofloxacin sensitive; conditions: Patient 1, stable CF lung disease, oral 450 mg once daily increased weekly to four times daily; pre trial MRSA
Protocol: (§1) Patients≧18 years of age, weighing>50 kg with stable CF lung disease were commenced on oral cysteamine bitartrate (Cystagon®) 450 mg once daily, increased weekly to 450 mg four times daily. Serial plasma cysteamine concentrations were measured for 24 h after the first dose. Participants were reviewed every week for 6 weeks, except at 4 weeks. Plasma cysteamine concentrations were measured 8 h after dosing when reviewed at 1, 2 and 3 weeks and 6 h after dosing when reviewed at 5 weeks. Sputum cysteamine concentration was also quantified at the 5-week assessment. Routine monitoring of clinical microbiology and reporting of speciation and resistance profile of major colonising microorganisms from patients continued as normal, prior to, during where necessary and after the trial by the hospital microbiology laboratory.

P. aeruginosa = test: as above; format: in vivo, Pseudomonas aeruginosa; conditions: oral 450 mg once daily increased weekly to four times daily
Protocol: as §1

O=C(O)c1cn(C2CC2)c2cc(N3CCNCC3)c(F)cc2c1=O [Ciprofloxacin]
Log10 reduction in cfu/g ([1]; 15 mg/kg i.v.): 2.02 log10 cfu/g

NCCS [Cysteamine, cysteamine]
Effect of cysteamine on the activity of ciprofloxacin ([1]; neutropenic mouse thigh model, cysteamine 1.25 mg/kg with ciprofloxacin 15 mg/kg): chemopotentiates the activity of ciprofloxacin | Log10 reduction in cfu/g ([1]; 1.25 mg/kg i.v.): 0.74 log10 cfu/g

NCCS.O=C(O)C(O)C(O)C(=O)O (stereo not shown) [cysteamine bitartrate]
Post trial microbiology (predominant pathogen in sputum) (Staphylococcus aureus): MSSA | Post trial microbiology (predominant pathogen in sputum) (P. aeruginosa; Patient 2, stable CF lung disease, pre trial PR P. aeruginosa): S P. aeruginosa | Post trial microbiology (predominant pathogen in sputum) (P. aeruginosa; Patient 3, stable CF lung disease, pre trial Cip^R P. aeruginosa): Cip^S P. aeruginosa

Colistin
Log10 reduction in cfu/g ([1]; 5 mg/kg SC): 5.02 log10 cfu/g
